Measured values: ChEMBL document CHEMBL1144199, “Design, synthesis, and biological evaluation of new mitonafide derivatives as potential antitumor drugs” (Bioorg Med Chem, 2008)

Assays:
DNA = assay: Displacement of ethidium bromide from calf thymus DNA assessed as ratio of concentration of ethidium in ethidium DNA complex to drug concentration by fluorometric assay; type: nucleic-acid assay; conditions: Bos taurus
HT-29 = assay: Cytotoxicity against human HT-29 cells after 144 hrs; type: functional, cell-based; conditions: HT-29, 144 h

Row | SMILES | Kapp (DNA) | IC50 (HT-29)
1 | CN(C)CCCNc1ccc2c3c(cccc13)C(=O)N(CCCN(C)C)C2=O | 1.3 ×10⁷ /M | 1400 nM
2 | CN(C)CCN1C(=O)c2cccc3cc([N+](=O)[O-])cc(c23)C1=O [MITONAFIDE] | 3.4 ×10⁶ /M | 220 nM
3 | CN(C)CCCN1C(=O)c2cccc3c(NCCN(C)C)ccc(c23)C1=O | 1.5 ×10⁷ /M | 1700 nM
4 | CN(C)CCN1C(=O)c2cccc3c(NCCNCCO)ccc(c23)C1=O | 2.4 ×10⁷ /M | 770 nM
5 | CN(C)CCNC(=O)c1cccc2c(=O)c3ccccc3[nH]c12 | – | 1700 nM
6 | CCN(CC)CCNc1ccc2c3c(cccc13)C(=O)N(CCN(C)C)C2=O | 2.3 ×10⁷ /M | 2100 nM
7 | CN(C)CCNc1ccc2c3c(cccc13)C(=O)N(CCN(C)C)C2=O | 2.3 ×10⁷ /M | 160 nM
8 | CN(C)CCNC(=O)c1ccc(NCCN(C)C)c2c(=O)c3ccccc3[nH]c12 | – | 44 nM

Now from value to compound, other results behind:

Row | Kapp (DNA) | SMILES | IC50 (HT-29)
9 | 3.9 ×10⁷ /M | CN(C)CCCNc1c(N)cc2c3c(cccc13)C(=O)N(CCCN(C)C)C2=O | 16800 nM
10 | 1.1 ×10⁸ /M | CN(C)CCCNc1ccc2c3c(cccc13)C(=O)N(CCCN(C)CCCN1C(=O)c3cccc4c(NCCCN(C)C)ccc(c34)C1=O)C2=O | 100 nM
11 | 1.9 ×10⁷ /M | CCN(CC)CCCNc1ccc2c3c(cccc13)C(=O)N(CCN(C)C)C2=O | 890 nM
12 | 1.9 ×10⁷ /M | CN(C)CCCNc1ccc2c3c(cccc13)C(=O)N(CCN(C)C)C2=O | 930 nM
13 | 2.3 ×10⁸ /M | CN(C)CCNc1ccc2c3c(cccc13)C(=O)N(CCCN(C)CCCN1C(=O)c3cccc4c(NCCN(C)C)ccc(c34)C1=O)C2=O | 60 nM
14 | 5.3 ×10⁷ /M | NCCNc1c([N+](=O)[O-])cc2c3c(cccc13)C(=O)N(CCN)C2=O | 860 nM
15 | 4.5 ×10⁷ /M | CN(C)CCNc1c(N)cc2c3c(cccc13)C(=O)N(CCN(C)C)C2=O | 810 nM
16 | 7.7 ×10⁷ /M | CN(C)CCNc1c([N+](=O)[O-])cc2c3c(cccc13)C(=O)N(CCN(C)C)C2=O | 120 nM
17 | 7 ×10⁷ /M | CN(C)CCCNc1c([N+](=O)[O-])cc2c3c(cccc13)C(=O)N(CCCN(C)C)C2=O | 140 nM
